Converted amounts (≈) assume the structure as drawn. Read-outs that look alike come from different tables or passages of the source.
Legend:
MRSA USA300 = test: Broth microdilution MIC, initial antibacterial screening; format: cell-based, S. aureus; conditions: MRSA USA300
Experimental: (§1) The minimum inhibitory concentrations (MICs) of the tested compounds and control drugs against clinically-relevant bacterial strains were determined using the broth microdilution method, according to guidelines outlined by the Clinical and Laboratory Standards Institute (CLSI), or as described previously.
(§2) Initial screening of the bisphenylthiazoles against Gram-positive and Gram-negative bacteria. Bacterial strains, (except C. difficile that was grown anaerobically on brain heart infusion supplemented agar at 37° C for 48 hours), were grown aerobically overnight on tryptone soy agar plates at 37° C. Afterwards, a bacterial solution equivalent to 0.5 McFarland standard was prepared and diluted in cation-adjusted Mueller-Hinton broth (CAMHB) (for S. aureus, and E. coli) to achieve a bacterial concentration of about 5 × 10^5 CFU/mL. C. difficile was diluted in brain heart infusion supplemented broth, supplemented with yeast extract, hemin and vitamin K to achieve a bacterial concentration of about 5 × 10^5 CFU/mL. Compounds and control drugs were added in the first row of the 96 -well plates, and serially diluted with the corresponding media containing bacteria. Plates were then, incubated aerobi cally at 37° C for 18-20 hours (for S. aureus and E. coli). C. difficile was incubated anaerobically at 37° C for 48 hours. […]
(§3) the visual growth of bacteria.

[1] = system: C. difficile ATCC BAA1870; test: Broth microdilution MIC, initial antibacterial screening (anaerobic); format: cell-based, Clostridioides difficile
Experimental: as §1, §2, §3

[2] = system: E. coli JW55031 (tolC-mutant); test: microbe, parasite or virus in culture; format: cell-based, Escherichia coli; conditions: E. coli JW55031 (tolC-mutant)
Experimental: as §1, §2, §3

[3] = system: E. coli BW25113 (wild-type); test: Broth microdilution MIC, initial antibacterial screening; format: cell-based, Escherichia coli
Experimental: as §1, §2, §3

Candida albicans = test: Antifungal broth microdilution MIC (50% growth inhibition) and MFC; format: cell-based
Experimental: (§4) Serial dilutions (from 128 μg/mL to 0.06 μg/mL) of the tested compounds and control drugs (fluconazole, itraconazole and amphotericin) (in triplicates), were screened against clinical isolates of Candida albicans, Candida auris, Candida glabrata, Candida parapsilosis, Candida tropicalis, Candida krusei, Cryptococcus neoformans, Cryptococcus gattii and Aspergillus fumigatus species using the broth microdilution method according to the Clinical and Laboratory Standards Institute guidelines. MICs were determined as the lowest concentration of the compounds that inhibited the fungal growth by 50% after incubation at 35 °C for 24 h (for Candida and Aspergillus), or 48 h (for Cryptococcus). The minimum fungicidal concentration (MFC) of these compounds was tested by plating 4 μL from wells with no growth onto YPD agar plates. The plates were incubated at 37 °C for 24 hours before recording the MFC, which was categorized as the lowest concentration that reduced fungal growth by 99.9% [45]. The experiment was repeated three independent times.

Candida auris = test: as above; format: cell-based
Experimental: as §4

Candida glabrata = test: as above; format: cell-based
Experimental: as §4

Candida krusei = test: as above; format: cell-based
Experimental: as §4

Candida tropicalis = test: as above; format: cell-based; conditions: C. tropicalis ATCC 1369
Experimental: as §4

[4] = system: Lactobacillus casei ATCC-334; test: Broth microdilution MIC against normal human microbiota; format: cell-based; conditions: Lactobacillus casei ATCC-334
Experimental: (§5) Broth microdilution was utilized to determine the activity of bisphenylthiazoles against the human gut microflora as described elsewhere. A bacterial solution equivalent to 0.5 McFarland standards was prepared and diluted in MRS broth to achieve a bacterial concentration of approximately 5 x 10^5 CFU/mL. Then, compounds/control antifungals (in triplicates), were added to the plates and serially diluted with media containing bacteria. The plates were incubated for 48 hours at 37 °C before recording the MIC values. The experiment was repeated three independent times.

[5] = system: Lactobacillus crispatus HM-370; test: as above; format: cell-based; conditions: Lactobacillus crispatus HM-370
Experimental: as §5

[6] = system: Lactobacillus gasseri HM-400; test: as above; format: cell-based; conditions: Lactobacillus gasseri HM-400
Experimental: as §5

Cryptococcus gattii = test: Antifungal broth microdilution MIC (50% growth inhibition, 48 h); format: cell-based
Experimental: as §4

Cryptococcus neoformans = test: as above; format: cell-based
Experimental: as §4

Aspergillus fumigatus = test: Antifungal broth microdilution MIC (50% growth inhibition); format: cell-based
Experimental: as §4

Candida parapsilosis = test: as above; format: cell-based
Experimental: as §4

[7] = system: human colorectal cells (Caco-2); test: In vitro cytotoxicity, MTS assay; conditions: Caco-2, 24 h exposure, MTS
Experimental: (§6) Fig 2 In vitro cytotoxicity assay of bisphenylthiazole compounds 7, 16 and 17 (tested in triplicates at 32, 64 and 128 μg/mL) against: A) human colorectal cells (Caco-2), and B) monkey kidney epithelial cells (Vero) after 24-hours exposure time, using the MTS 3-(4,5-dimethylthiazol-2-yl)-5-(3-carboxymethoxyphenyl)-2-(4-sulfophenyl)-2H-tetrazolium) assay. The data represent the percentage of viable Caco-2 or Vero cells measured as the average absorbance relative to DMSO after exposure to the tested compounds. Dimethyl sulfoxide (DMSO) was used as a negative control. Error bars represent the standard deviation values.
(§7) To explore the tolerability of bisphenylthiazoles, their cytotoxicity profile was assessed in human colorectal adenocarcinoma (Caco-2) and monkey kidney epithelial cells (Vero) as described earlier. Briefly, compounds were incubated with the cells for 24 hours. Then, cells were incubated with MTS reagent for 3 hours before measuring the absorbance values (OD490). The experiment was repeated in two independent times.

[8] = system: monkey kidney epithelial cells (Vero); test: In vitro cytotoxicity, MTS assay
Experimental: as §6, §7

Cc1nc(-c2ccc(-c3ccccc3)cc2)sc1-c1nnc(N[C@@H]2CCCC[C@H]2N)o1 (relative stereo) [Compound 16, N-{5-[2-((1,1’-Biphenyl)-4-yl)-4-methylthiazol-5-yl]-1,3,4-oxadiazol-2-yl}cyclo-hexane-trans-1,2-diamine]
MIC (MRSA USA300): 64 µg/mL (≈ 148 µM)
MIC [1]: 32 µg/mL (≈ 74.1 µM)
MIC [2]: 64 µg/mL (≈ 148 µM)
MIC [3]: >64 µg/mL
MIC (Candida albicans): 2 µg/mL (≈ 4.63 µM)
MIC (Candida albicans; C. albicans ATCC 10231): 4 µg/mL (≈ 9.27 µM)
MIC (Candida albicans; C. albicans SS5314 (wild-type)): 1 µg/mL (≈ 2.32 µM)
MIC (Candida auris; C. auris 381): 1 µg/mL (≈ 2.32 µM)
MIC (Candida auris; C. auris 382): 2 µg/mL (≈ 4.63 µM)
MIC (Candida auris; C. auris 383): 1 µg/mL (≈ 2.32 µM)
MIC (Candida auris; C. auris 384): 1 µg/mL (≈ 2.32 µM)
MIC (Candida auris; C. auris 385): 2 µg/mL (≈ 4.63 µM)
MIC (Candida auris; C. auris 386): 1 µg/mL (≈ 2.32 µM)
MIC (Candida auris; C. auris 387): 2 µg/mL (≈ 4.63 µM)
MIC (Candida auris; C. auris 388): 1 µg/mL (≈ 2.32 µM)
MIC (Candida auris; C. auris 389): 2 µg/mL (≈ 4.63 µM)
MIC (Candida auris; C. auris 390): 1 µg/mL (≈ 2.32 µM)
MIC (Candida glabrata; C. glabrata ATCC 66032): 1 µg/mL (≈ 2.32 µM)
MIC (Candida glabrata; C. glabrata ATCC MYA-2950): 1 µg/mL (≈ 2.32 µM)
MIC (Candida krusei; C. krusei ATCC 34135): 1 µg/mL (≈ 2.32 µM)
MIC (Candida krusei; C. krusei CAB 396420): 1 µg/mL (≈ 2.32 µM)
MIC (Candida tropicalis): 4 µg/mL (≈ 9.27 µM)
MIC [4]: >128 µg/mL
MIC [5]: >128 µg/mL
MIC [6]: >128 µg/mL
MIC (Cryptococcus gattii; C. gattii NR 43209): 1 µg/mL (≈ 2.32 µM)
MIC (Cryptococcus gattii; C. gattii NR 43210): 1 µg/mL (≈ 2.32 µM)
MIC (Cryptococcus neoformans; C. neoformans NR 41298): 1 µg/mL (≈ 2.32 µM)
MIC (Cryptococcus neoformans; C. neoformans NR 41300): 1 µg/mL (≈ 2.32 µM)
MIC (Cryptococcus neoformans; C. neoformans NR 48770): 1 µg/mL (≈ 2.32 µM)
MIC (Aspergillus fumigatus; A. fumigatus NR 35303): 4 µg/mL (≈ 9.27 µM)
MIC (Aspergillus fumigatus; A. fumigatus NR 35304): 4 µg/mL (≈ 9.27 µM)
MIC against Aspergillus fumigatus (Aspergillus fumigatus; tested A. fumigatus isolates (Table 5)): 4 µg/mL (≈ 9.27 µM)
MIC (Candida parapsilosis; C. parapsilosis ATCC 22019): 1 µg/mL (≈ 2.32 µM)
MIC (Candida parapsilosis; C. parapsilosis CAB 502638): 1 µg/mL (≈ 2.32 µM)
CC50 [7]: > 128 µg/mL
concentration up to which non-toxic [7]: ≤ 64 µg/mL
concentration up to which non-toxic ([8]; Vero, 24 h exposure, MTS): ≤ 64 µg/mL
times more tolerable than amphotericin B ([8]; relative to amphotericin B): 16 times

— PMC8568133, “Evaluation of bisphenylthiazoles as a promising class for combating multidrug-resistant fungal infections” (PLoS ONE, 2021)
